In ChEMBL document CHEMBL1201862, “PubChem BioAssay data set” (2004):
Calls of active or inactive are those of the source.

Assays:
[1] = biological target: T1, Calpain-2 catalytic subunit (Sus scrofa, UniProt P43367); assay: pig calpain II inhibitor potency, dose response, biochemical, fluorogenic peptide substrate (AID 1420); type: functional
T1 sequence (P43367 whole entry): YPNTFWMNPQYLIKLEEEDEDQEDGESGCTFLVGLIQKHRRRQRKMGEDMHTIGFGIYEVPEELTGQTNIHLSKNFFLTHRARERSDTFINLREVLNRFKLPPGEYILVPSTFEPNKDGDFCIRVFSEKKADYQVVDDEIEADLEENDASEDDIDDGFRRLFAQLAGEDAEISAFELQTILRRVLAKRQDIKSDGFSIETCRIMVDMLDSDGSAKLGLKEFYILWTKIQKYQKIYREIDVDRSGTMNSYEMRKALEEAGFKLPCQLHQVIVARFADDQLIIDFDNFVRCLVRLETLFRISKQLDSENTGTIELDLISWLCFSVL

[2] = biological target: T2, Leucine aminopeptidase (Plasmodium falciparum 3D7, UniProt Q8IL11); assay: P. falciparum M17LAP inhibitors, primary screen, biochemical, fluorogenic H-Leu-NHMec substrate, 1536-well (AID 1619); type: functional
T2 sequence (Q8IL11 whole entry): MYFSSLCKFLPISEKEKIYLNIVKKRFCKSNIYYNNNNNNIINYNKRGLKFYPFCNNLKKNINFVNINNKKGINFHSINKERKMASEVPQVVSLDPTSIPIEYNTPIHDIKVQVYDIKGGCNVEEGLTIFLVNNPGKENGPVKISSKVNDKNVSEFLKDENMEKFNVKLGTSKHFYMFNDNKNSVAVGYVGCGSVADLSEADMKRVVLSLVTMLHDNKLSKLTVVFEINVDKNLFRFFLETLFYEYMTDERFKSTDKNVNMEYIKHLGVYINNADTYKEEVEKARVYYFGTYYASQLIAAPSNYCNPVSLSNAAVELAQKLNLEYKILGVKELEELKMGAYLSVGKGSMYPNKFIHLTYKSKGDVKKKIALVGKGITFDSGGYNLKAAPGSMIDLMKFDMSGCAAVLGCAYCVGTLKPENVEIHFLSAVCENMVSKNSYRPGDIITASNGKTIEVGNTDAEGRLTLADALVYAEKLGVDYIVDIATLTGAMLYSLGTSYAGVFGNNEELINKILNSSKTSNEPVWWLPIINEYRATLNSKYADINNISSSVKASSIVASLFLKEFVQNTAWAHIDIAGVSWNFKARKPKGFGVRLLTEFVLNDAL

[3] = biological target: Beta-lactamase (Salmonella choleraesuis (strain SC-B67), UniProt Q5J463)
Sequence of Beta-lactamase (Salmonella choleraesuis (strain SC-B67), UniProt Q5J463) (Q5J463 whole entry): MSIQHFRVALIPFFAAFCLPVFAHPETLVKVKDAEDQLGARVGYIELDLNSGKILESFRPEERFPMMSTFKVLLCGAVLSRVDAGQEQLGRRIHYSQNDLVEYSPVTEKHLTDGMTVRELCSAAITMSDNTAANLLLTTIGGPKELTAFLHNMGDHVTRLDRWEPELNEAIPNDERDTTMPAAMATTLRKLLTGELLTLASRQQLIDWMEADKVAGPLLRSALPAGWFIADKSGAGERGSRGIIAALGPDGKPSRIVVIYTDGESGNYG

[4] = biological target: G-protein coupled receptor 35 (Homo sapiens, UniProt Q9HC97); assay: GPR35 antagonists blocking zaprinast-driven arrestin recruitment, primary screen, imaging, U2OS, beta-arrestin-GFP, zaprinast agonist (AID 2058); type: functional;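 also: antagonist potency meaning inhibition of agonist-induced arrestin redistribution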
Sequence of G-protein coupled receptor 35 (Q9HC97 whole entry): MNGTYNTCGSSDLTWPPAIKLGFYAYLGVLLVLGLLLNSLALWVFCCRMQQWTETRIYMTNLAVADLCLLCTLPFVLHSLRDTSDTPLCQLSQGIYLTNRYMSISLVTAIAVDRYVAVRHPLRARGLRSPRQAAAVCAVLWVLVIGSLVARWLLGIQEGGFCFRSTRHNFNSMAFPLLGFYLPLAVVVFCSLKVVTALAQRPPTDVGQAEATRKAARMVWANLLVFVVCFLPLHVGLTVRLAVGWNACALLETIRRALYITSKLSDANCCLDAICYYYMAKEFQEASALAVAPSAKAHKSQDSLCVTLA

[5] = enhancers of respiration in Yfh1-depleted yeast, dose response, Friedreich's ataxia, plus single-dose screen (AID 1465); type: functional;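 also: yeast depleted of Yfh1p frataxin homolog grown on glycerol needing respiration; WST-1 tetrazolium dye reduction as measure of cellular dehydrogenase metabolic activity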
[6] = biological target: Beta-lactamase (Pseudomonas aeruginosa, UniProt Q79MP6);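 also: biochemical dose-response test of metallo-beta-lactamase enzyme inhibition, read out by epi-absorbance; purified recombinant IMP-1 metallo-beta-lactamase with nitrocefin as substrate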
[7] = biological target: Glyceraldehyde-3-phosphate dehydrogenase (Homo sapiens, UniProt P04406)
Sequence of Glyceraldehyde-3-phosphate dehydrogenase (P04406 whole entry): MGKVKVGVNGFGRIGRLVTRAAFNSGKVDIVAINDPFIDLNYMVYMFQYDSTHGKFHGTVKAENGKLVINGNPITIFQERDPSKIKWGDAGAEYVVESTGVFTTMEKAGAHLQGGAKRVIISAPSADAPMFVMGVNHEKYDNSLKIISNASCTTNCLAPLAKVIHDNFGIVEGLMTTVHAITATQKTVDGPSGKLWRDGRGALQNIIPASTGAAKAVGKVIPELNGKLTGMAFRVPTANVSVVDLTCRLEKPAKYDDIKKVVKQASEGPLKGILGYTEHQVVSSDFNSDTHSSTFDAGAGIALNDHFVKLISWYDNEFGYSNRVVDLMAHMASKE

[8] = biological target: T3, Tyrosine-protein phosphatase non-receptor type 7 (Homo sapiens, UniProt P35236); type: functional
T3 sequence (P35236 whole entry): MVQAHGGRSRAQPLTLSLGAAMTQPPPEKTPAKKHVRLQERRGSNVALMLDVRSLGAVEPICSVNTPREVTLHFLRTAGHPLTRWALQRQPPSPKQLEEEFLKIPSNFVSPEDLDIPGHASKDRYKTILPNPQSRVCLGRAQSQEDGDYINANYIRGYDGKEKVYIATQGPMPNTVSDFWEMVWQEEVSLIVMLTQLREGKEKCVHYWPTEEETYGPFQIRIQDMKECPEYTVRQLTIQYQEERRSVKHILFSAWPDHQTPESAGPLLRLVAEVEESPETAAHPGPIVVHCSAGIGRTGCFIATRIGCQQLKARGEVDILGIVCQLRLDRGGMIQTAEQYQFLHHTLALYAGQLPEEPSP

[9] = biological target: T4, Dual specificity protein phosphatase 6 (Rattus norvegicus, UniProt Q64346)
T4 sequence (Q64346 whole entry): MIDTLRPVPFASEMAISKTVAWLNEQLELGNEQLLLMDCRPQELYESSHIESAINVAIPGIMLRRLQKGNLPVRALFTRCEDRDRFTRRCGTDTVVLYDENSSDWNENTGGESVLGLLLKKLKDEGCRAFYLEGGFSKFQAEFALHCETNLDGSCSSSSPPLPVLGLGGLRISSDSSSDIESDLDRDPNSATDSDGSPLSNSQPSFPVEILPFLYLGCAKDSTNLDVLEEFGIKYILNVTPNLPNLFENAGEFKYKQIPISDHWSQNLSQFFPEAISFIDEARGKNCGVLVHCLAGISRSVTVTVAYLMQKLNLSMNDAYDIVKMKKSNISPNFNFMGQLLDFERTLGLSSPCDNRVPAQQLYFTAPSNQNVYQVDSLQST

[10] = biological target: T4, Dual specificity protein phosphatase 6; type: functional
[11] = biological target: T5, Polyadenylate-binding protein 1 (Homo sapiens, UniProt P11940); assay: PABP1 MLLE–PAM2 interaction inhibitors, dose response, miRNA deadenylation inhibitor project, biochemical, fluorescence polarization, Cy5-PAM2 peptide, secondary (AID 602260); type: functional; settings: read-out: IC50_Mean
T5 sequence (P11940 whole entry): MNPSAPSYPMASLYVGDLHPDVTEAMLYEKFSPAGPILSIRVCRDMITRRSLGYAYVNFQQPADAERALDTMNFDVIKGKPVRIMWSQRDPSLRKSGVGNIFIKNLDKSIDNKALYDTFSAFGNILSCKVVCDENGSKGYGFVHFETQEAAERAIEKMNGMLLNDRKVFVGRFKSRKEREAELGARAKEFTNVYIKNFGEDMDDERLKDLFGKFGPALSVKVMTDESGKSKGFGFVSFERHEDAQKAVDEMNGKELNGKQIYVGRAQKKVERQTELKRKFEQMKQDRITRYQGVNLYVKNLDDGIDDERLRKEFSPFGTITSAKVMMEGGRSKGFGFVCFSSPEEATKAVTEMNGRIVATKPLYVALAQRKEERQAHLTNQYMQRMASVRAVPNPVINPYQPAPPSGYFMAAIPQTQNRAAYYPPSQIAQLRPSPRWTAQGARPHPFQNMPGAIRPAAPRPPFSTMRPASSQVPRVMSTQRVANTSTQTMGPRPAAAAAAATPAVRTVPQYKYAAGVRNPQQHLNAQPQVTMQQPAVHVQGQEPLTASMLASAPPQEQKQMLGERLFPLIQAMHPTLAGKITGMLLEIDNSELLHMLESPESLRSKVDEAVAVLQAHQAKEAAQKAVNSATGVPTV

[12] = biological target: T5, Polyadenylate-binding protein 1; assay: PABP1 MLLE–PAM2 binding inhibitor potency, dose response, biochemical, fluorescence polarization, FITC-PAM2 peptide (AID 602259); type: functional; settings: read-out: IC50_Mean
[13] = biological target: Protein Rev (Human immunodeficiency virus type 1 group M subtype B (isolate HXB2)(HIV-1), UniProt P04618); assay: inhibitors of Rev binding to RRE RNA, dose response, biochemical, fluorescence polarization, HIV-1 (AID 434976); design: species or system Human immunodeficiency virus 1
Sequence of Protein Rev (Human immunodeficiency virus type 1 group M subtype B (isolate HXB2)(HIV-1), UniProt P04618) (P04618 whole entry): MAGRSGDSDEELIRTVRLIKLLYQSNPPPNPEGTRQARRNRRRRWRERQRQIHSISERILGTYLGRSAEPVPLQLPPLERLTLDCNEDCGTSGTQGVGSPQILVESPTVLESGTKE

[14] = biological target: Female germline-specific tumor suppressor gld-1 (Caenorhabditis elegans, UniProt Q17339); assay: inhibitors of GLD-1 binding to TGE RNA, dose response, biochemical, fluorescence polarization, C. elegans (AID 2802);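 also: fluorescence polarization of labeled TGE RNA bound by purified gld-1 protein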
Sequence of Female germline-specific tumor suppressor gld-1 (Q17339 whole entry): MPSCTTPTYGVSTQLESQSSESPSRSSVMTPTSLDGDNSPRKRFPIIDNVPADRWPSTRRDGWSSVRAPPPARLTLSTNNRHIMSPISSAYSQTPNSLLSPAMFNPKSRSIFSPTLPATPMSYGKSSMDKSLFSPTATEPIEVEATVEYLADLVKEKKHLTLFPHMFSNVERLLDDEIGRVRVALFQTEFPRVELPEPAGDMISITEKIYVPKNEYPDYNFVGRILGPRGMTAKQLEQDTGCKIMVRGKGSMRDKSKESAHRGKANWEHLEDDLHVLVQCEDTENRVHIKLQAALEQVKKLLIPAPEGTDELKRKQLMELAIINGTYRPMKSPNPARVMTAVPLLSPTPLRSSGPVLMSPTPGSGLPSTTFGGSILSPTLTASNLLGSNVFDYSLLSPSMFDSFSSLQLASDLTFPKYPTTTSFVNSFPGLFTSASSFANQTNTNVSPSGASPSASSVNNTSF

[15] = biological target: Protein Rev (Human immunodeficiency virus type 1 group M subtype B (isolate WMJ22)(HIV-1), UniProt P05866); assay: HIV-1 Rev-RRE RNA binding disruptors, dose response, biochemical, protein-RNA interaction (AID 842); design: species or system Human immunodeficiency virus 1
Sequence of Protein Rev (Human immunodeficiency virus type 1 group M subtype B (isolate WMJ22)(HIV-1), UniProt P05866) (P05866 whole entry): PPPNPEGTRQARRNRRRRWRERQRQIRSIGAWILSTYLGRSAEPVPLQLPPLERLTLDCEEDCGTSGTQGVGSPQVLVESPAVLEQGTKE

[16] = system: Staphylococcus aureus; assay: Inhibitors of Bacterial Quorum Sensing Structure Activity Relationship (SAR) Analysis: Dose Response Assay. [Related pubchem assays: 700, 527 ]; type: functional, organism-based
[17] = biological target: Melanin-concentrating hormone receptor 1 (Homo sapiens, UniProt Q99705); assay: Late-stage fluorescence-based counterscreen for antagonists of the G-protein coupled receptor 7 (GPR7): cell-based dose response assay to identify antagonists of the melanin-concentrating hormone receptor 1 (MCHR1). [Related pubchem assays (depositor defined):AID1861, AID1880, AID1952, AID2148, AID2251, AID2257, AID485339]; type: functional;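 also: stimulated with 30 nM MCH peptide agonist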
[18] = biological target: Nucleotide-binding oligomerization domain-containing protein 2 (Homo sapiens, UniProt Q9HC29); assay: PubChem AID 2334; type: functional
Sequence of Nucleotide-binding oligomerization domain-containing protein 2 (Q9HC29 whole entry, the tested form may be a part): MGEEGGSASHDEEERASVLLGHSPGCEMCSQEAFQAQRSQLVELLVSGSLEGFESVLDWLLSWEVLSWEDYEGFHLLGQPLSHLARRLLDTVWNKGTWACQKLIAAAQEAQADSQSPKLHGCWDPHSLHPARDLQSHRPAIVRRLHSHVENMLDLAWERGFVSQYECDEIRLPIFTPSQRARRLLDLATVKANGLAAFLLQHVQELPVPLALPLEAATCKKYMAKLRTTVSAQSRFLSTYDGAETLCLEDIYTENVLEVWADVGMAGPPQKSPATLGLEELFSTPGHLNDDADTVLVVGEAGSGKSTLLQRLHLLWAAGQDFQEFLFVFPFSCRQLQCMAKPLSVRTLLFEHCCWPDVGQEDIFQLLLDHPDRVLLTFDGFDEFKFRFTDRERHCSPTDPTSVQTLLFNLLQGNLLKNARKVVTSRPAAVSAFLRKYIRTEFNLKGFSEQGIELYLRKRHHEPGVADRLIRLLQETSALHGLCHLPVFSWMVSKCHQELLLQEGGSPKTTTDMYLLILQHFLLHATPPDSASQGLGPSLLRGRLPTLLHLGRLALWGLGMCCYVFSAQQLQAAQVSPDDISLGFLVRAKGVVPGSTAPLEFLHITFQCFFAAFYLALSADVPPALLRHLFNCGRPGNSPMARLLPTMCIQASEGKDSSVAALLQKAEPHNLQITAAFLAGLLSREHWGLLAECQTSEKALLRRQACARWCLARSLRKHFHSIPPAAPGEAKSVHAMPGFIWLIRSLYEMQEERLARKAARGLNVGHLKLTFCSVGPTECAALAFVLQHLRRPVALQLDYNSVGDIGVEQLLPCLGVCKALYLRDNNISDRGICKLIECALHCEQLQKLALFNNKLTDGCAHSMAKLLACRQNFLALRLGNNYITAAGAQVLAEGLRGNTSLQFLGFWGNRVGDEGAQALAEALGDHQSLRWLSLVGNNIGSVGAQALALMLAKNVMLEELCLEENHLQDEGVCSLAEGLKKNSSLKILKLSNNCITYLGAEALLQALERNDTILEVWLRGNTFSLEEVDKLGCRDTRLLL

[19] = biological target: Tumor necrosis factor (Homo sapiens, UniProt P01375); assay: TNFa-triggered NF-kB activation inhibitors, SAR follow-up, cell-based, revised (AID 2337); type: functional
Sequence of Tumor necrosis factor (P01375 whole entry, the tested form may be a part): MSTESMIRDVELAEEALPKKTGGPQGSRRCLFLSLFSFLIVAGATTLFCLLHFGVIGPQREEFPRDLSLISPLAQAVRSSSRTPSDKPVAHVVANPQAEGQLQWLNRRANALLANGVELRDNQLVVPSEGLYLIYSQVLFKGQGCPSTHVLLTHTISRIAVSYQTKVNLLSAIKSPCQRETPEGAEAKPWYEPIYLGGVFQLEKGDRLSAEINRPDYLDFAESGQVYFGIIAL

[20] = biological target: Nucleotide-binding oligomerization domain-containing protein 1 (Homo sapiens, UniProt Q9Y239); assay: NOD1 signaling inhibitors, SAR follow-up, revised (AID 2333); type: functional
Sequence of Nucleotide-binding oligomerization domain-containing protein 1 (Q9Y239 whole entry, the tested form may be a part): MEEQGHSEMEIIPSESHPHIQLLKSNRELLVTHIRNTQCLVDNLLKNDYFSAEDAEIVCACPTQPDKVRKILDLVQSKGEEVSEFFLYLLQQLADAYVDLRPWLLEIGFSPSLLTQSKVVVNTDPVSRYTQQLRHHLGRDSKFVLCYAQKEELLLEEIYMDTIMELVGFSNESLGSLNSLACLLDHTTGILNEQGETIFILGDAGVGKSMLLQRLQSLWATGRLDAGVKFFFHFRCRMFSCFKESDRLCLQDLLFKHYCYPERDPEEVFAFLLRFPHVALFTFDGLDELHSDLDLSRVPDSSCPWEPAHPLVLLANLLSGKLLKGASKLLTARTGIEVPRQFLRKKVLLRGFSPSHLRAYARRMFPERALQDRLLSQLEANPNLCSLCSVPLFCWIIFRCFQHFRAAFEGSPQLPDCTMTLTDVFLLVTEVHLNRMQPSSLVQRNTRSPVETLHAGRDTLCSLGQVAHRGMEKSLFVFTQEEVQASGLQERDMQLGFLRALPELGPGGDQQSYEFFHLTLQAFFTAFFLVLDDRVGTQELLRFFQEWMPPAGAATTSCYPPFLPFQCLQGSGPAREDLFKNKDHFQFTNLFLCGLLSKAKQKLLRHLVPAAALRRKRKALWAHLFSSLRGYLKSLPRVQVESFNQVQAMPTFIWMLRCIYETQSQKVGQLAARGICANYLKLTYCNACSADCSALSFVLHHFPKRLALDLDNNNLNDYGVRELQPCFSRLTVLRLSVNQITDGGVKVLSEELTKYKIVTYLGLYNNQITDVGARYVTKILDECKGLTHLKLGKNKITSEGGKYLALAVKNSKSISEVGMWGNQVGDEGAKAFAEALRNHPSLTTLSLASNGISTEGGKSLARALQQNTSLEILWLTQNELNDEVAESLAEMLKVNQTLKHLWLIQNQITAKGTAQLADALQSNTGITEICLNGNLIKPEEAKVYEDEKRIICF

[21] = system: HEK293; assay: cells; settings: Homo sapiens;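 also: cells exposed to compound for 14 hours overnight before viability readout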
[22] = system: INS1; assay: beta cell apoptosis inhibitors, cytokine rescue, dose response, luminescence, retest (AID 449756); type: functional, cell-based; settings: Rattus norvegicus;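 also: cell death triggered by IL-1 beta plus TNF-alpha plus IFN-gamma mixture; protective hits raise ATP signal compared with cytokine alone wells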
[23] = Luminescence Cell-Based Dose Retest to Confirm Inhibitors of Cancer Stem Cells. [Related pubchem assays (depositor defined):AID2717, AID2721]; type: functional; settings: Homo sapiens
[24] = biological target: Neurotensin receptor type 1 (Homo sapiens, UniProt P30989); type: functional;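 also: Image-based confirmatory dose-response assay measuring agonist activity at NTR1; NTR1-expressing U2OS osteosarcoma cells imaged for beta-arrestin GFP spot formation; agonist potency where compounds increase beta-arrestin recruitment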
Sequence of Neurotensin receptor type 1 (P30989 whole entry): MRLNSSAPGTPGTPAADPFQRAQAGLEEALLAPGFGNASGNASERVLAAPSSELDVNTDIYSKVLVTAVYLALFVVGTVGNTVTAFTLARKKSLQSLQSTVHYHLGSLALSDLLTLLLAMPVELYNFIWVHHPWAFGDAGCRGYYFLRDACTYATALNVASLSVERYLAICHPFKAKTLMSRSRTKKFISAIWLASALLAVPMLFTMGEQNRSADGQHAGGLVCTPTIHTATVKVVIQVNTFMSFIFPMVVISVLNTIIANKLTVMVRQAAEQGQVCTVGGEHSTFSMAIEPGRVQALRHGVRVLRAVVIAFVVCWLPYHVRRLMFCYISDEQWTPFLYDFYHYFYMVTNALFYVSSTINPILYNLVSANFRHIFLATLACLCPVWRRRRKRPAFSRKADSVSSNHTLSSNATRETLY

CN1CCN(C2=CC3=CC(=C(C#N)C#N)CCC3CC2)CC1 (centres undefined)
IC50 [1]: 13.9 µM (not active) | IC50 [2]: 100 µM (active) | IC50 [3]: 2.28 µM (active) | IC50 [4]: 2.76 µM (active) | EC50 [5]: > 100 µM (active) | IC50 [6]: 3.5 µM (active)

Cn1c(SCC(=O)O)nc2sc3c(c2c1=O)CCC3
IC50 [7]: > 100 µM (not active) | IC50 [8]: > 100 µM (not active) | IC50 [9]: > 100 µM (inactive) | IC50 [10]: > 100 µM (inactive)

COc1ccc2nc(N3CCCCC3)c(C#N)cc2c1
IC50 [11]: > 66 µM (inactive) | IC50 [12]: 18.5 µM (active) | IC50 [13]: 14.8 µM (not active) | IC50 [14]: 6.28 µM (active)

COc1cccc(Nc2nc(N)nc(-c3oc4ccccc4c3C)n2)c1
IC50 [15]: > 79.4 µM (not active)

CC(=O)c1cc2c(cc1NC(=O)CN1CCN(C(c3ccccc3)c3ccccc3)CC1)OCO2
IC50 [16]: 1.51 µM (active)

COc1ccc(Oc2c(Cl)cnn(-c3ccc(C(C)C)c(C)c3)c2=O)cc1
IC50 [17]: 2 µM (active)

N#Cc1ccc(C(=O)Nc2nc3ccccc3n2Cc2ccc(Cl)cc2)cc1
IC50 [18]: > 20 µM (inactive) | IC50 [19]: > 20 µM (inactive) | IC50 [20]: > 20 µM (inactive) | IC50 [21]: > 20 µM (inactive)

COc1cc(OC)c2cc(C(=O)N/N=C/c3cccc(OC)c3O)[nH]c2c1
AC50 [22]: 3.8 µM (active) | AC50 [23]: 3.97 µM (active) | EC50 [24]: 19.3 µM (active)
